AbsAC1 (concentration giving Tm-shift threshold 1.0) data for 53 compounds are collected here from PubChem BioAssay AID687022 (Broad Institute, 2013).

This test has as its target Fibroblast growth factor 22 (Homo sapiens) (UniProt Q9HCT0). Nature of the test: FGF22 ligand-induced thermal stabilization – biophysical, thermal shift, cherry-pick, FGF22 synaptogenesis inhibitor project, dose response (AID 687022). The note with it: recombinant FGF22 thermal shift, SYPRO orange melting.

The source made the active and inactive calls.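 Rule for the calls: active = Fitted curve of melting temperature shift crosses the 1.0 threshold at or below the sample's highest valid tested concentration; inconclusive = Flat fit with activity 30 to 70, or invalid fit; inactive = Opposite direction, flat within 30, or no crossing.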 Where only a bound is given, the exact number is not on record here.

Fibroblast growth factor 22 (Homo sapiens), sequence (Q9HCT0 whole entry, looked up): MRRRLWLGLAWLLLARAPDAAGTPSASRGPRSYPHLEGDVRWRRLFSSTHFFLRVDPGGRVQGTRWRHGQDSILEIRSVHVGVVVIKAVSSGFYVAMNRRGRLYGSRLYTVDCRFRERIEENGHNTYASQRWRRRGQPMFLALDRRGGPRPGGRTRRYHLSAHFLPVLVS

`Cc1[nH]c2ccccc2c1C(=O)NS(=O)(=O)Nc1ccc(Cl)cc1`: the AbsAC1 (concentration giving Tm-shift threshold 1.0) is 3.06 µM. The figure for `Cc1ccc(OCCCC(=O)Nc2ccc(S(=O)(=O)N3CCOCC3)cc2)cc1` is 2.45 µM; for `O=c1c2cc([N+](=O)[O-])cc([N+](=O)[O-])c2[nH]n1-c1ccccc1` it is 4.84 µM. On to `CC(C)(C)S(=O)(=O)/C(C#N)=N/Nc1ccc(Cl)cc1`, for which the AbsAC1 (concentration giving Tm-shift threshold 1.0) is 25.7 µM. In the case of `CCOC(=O)c1c(N)sc(C(=O)Nc2ccccc2)c1C`, the AbsAC1 (concentration giving Tm-shift threshold 1.0) was 3.02 µM. The figure for `O=C(Nc1ccccc1)N1C[C@H]2[C@@H](c3ccccc31)[C@@H](CO)N2C(=O)c1ccncc1` is 41.2 µM; for `CCOc1ccc(N2C(=O)C(CC(=O)Nc3ccccc3)N(Cc3ccccn3)C2=S)cc1` (stereo not drawn) it is 4.24 µM; for `C[C@@H]1CN([C@@H](C)CO)S(=O)(=O)c2ccc(C3=CCCC3)cc2O[C@@H]1CN(C)C(=O)Nc1ccc2c(c1)OCO2` it is 20.2 µM. The figure for `O=C(N/N=C/c1c[nH]c2ccc(Br)cc12)C1CC1` is 7.7 µM; for `O=C(NNC(=O)C1CCN(S(=O)(=O)c2ccccc2C(F)(F)F)CC1)c1ccccc1O` it is 10.4 µM; for `COc1cccc(C(=O)Nc2cccc(NC(=O)c3cccs3)c2)c1` it is 1.72 µM. Consider `NC(=NCCc1c[nH]c2ccccc12)NS(=O)(=O)c1ccc(F)cc1`, for which the AbsAC1 (concentration giving Tm-shift threshold 1.0) was 6.63 µM. The figure for `CC(=O)Nc1ccc(S(=O)(=O)Nc2nc3ccccc3nc2Nc2cccc(S(N)(=O)=O)c2)cc1` is 12.7 µM; for `Cn1ncc2c(Nc3ccc(Cl)c(Cl)c3)ncnc21` it is 24.9 µM; for `CC(C)C#Cc1cnc2c(c1)C(=O)N([C@@H](C)CO)C[C@@H](C)[C@H](CN(C)C(=O)c1cnccn1)O2` it is > 38 µM (inactive).

In the case of `O=C(NCc1ccc(Cl)cc1)c1n[nH]c([N+](=O)[O-])c1Cl`, the AbsAC1 (concentration giving Tm-shift threshold 1.0) is 5.18 µM. Consider `COc1ccccc1NS(=O)(=O)c1cc(C(=O)Nc2ccc(S(=O)(=O)Nc3onc(C)c3C)cc2)ccc1C`, for which the AbsAC1 (concentration giving Tm-shift threshold 1.0) is 4.31 µM. The figure for `O=C(N/N=C/c1ccsc1)c1c[nH]c2ccccc12` is 17.9 µM. Next, `COc1cccc(C#Cc2ccc([C@H]3[C@H]4CN(S(=O)(=O)c5ccccc5C)CC(=O)N4[C@H]3CO)cc2)c1`: 16.6 µM. Next, `O=C(Nc1nnc(C(F)(F)F)s1)c1ccc(Br)s1`: 15.6 µM. Regarding `CO[C@H](CN(C)S(=O)(=O)c1cccc(Cl)c1)[C@H](C)CN([C@H](C)CO)S(=O)(=O)c1cccc(Cl)c1`, the AbsAC1 (concentration giving Tm-shift threshold 1.0) is 14.1 µM.

In the case of `COC12CC(=O)C(C(C)=O)=C(O)C1(C)c1c(O)c(C)c(O)c(C(C)=O)c1O2` (stereo not drawn), the AbsAC1 (concentration giving Tm-shift threshold 1.0) was 6.77 µM. Turning to `O=C(O)c1ccc(NC(=O)c2cccc(S(=O)(=O)Nc3ccc(C(=O)O)cc3)c2)cc1`, the AbsAC1 (concentration giving Tm-shift threshold 1.0) was > 5 µM (inactive). The figure for `NS(=O)(=O)c1cc(C(=O)NC2CCSc3ccccc32)ccc1Cl` (stereo not drawn) is 9.54 µM; for `COc1ccc(-c2csc(NC(=O)CN3C(=O)C4CCCCC4C3=O)n2)c(OC)c1` (stereo not drawn) it is 14.7 µM; for `COc1ccc(-c2ccc([C@@H]3[C@@H](CO)N4CCCCN(C(=O)c5ccc(F)cc5)C[C@@H]34)cc2)cc1` it is 3.54 µM. The figure for `CN1C(=O)c2cc(NC(=O)c3cccc(F)c3)ccc2OC[C@@H]2O[C@H](CC(=O)NCc3ccccc3)CC[C@@H]21` is 21 µM.

Regarding `COc1cccc(S(=O)(=O)N2C[C@@H](O)COC[C@@H]3O[C@@H](CC(=O)Nc4ccccc4)CC[C@H]32)c1`, the AbsAC1 (concentration giving Tm-shift threshold 1.0) is 3.38 µM. Consider `O=C(Nc1cc(Cl)cc(Cl)c1)N[C@H]1CC[C@H](CCNS(=O)(=O)c2cccc(F)c2)O[C@@H]1CO`, for which the AbsAC1 (concentration giving Tm-shift threshold 1.0) was 11 µM.

As to `O=C(C[C@H]1CC[C@H]2[C@@H](COC[C@H](O)CN2Cc2ccccc2)O1)NCCc1ccccc1`, the AbsAC1 (concentration giving Tm-shift threshold 1.0) was > 38 µM (inactive). `CCN(CC)S(=O)(=O)c1ccc(N/N=C(\C)c2ccc(OC)cc2O)nc1`: the AbsAC1 (concentration giving Tm-shift threshold 1.0) is 14 µM. The figure for `O=S(=O)(ON(c1ccccc1)S(=O)(=O)c1ccccc1)c1ccccc1` is 14 µM; for `O=C(N/N=C/c1ccc(O)cc1)c1cccc(N/N=C/c2ccc(O)cc2)c1` it is 5.77 µM. Take `COc1ccc(NC(=O)COC(=O)Cc2c[nH]c3ccccc23)cc1Cl`: the AbsAC1 (concentration giving Tm-shift threshold 1.0) is 2.76 µM. Turning to `O=C(Nc1cc(Cl)cc(Cl)c1)N[C@@H]1CC[C@@H](CCNS(=O)(=O)c2cccc(F)c2)O[C@@H]1CO`, the AbsAC1 (concentration giving Tm-shift threshold 1.0) is 5.64 µM. The figure for `O=C(C[C@@H]1CC[C@@H]2[C@H](COC[C@@H](O)CN2S(=O)(=O)c2cccc(F)c2)O1)Nc1ccc(-c2ccccc2)cc1` is 22.3 µM; for `O=C(N/N=C/c1c[nH]c2ccccc12)c1cccc(Cl)c1` it is 2.15 µM; for `Nc1nnc(CC(=O)N/N=C/c2cc([N+](=O)[O-])cc(Br)c2O)s1` it is 4.99 µM.

With `Cc1cc(C(=O)N/N=C/c2c[nH]c3ccccc23)cs1`, the AbsAC1 (concentration giving Tm-shift threshold 1.0) is 2.23 µM. The figure for `C[C@@H]1CN([C@H](C)CO)S(=O)(=O)c2ccc(-c3ccc(F)cc3)cc2O[C@@H]1CN(C)C(=O)Nc1ccccc1F` is 22.1 µM; for `COc1ccc(/C(O)=C/C(=O)C(=O)NNC(=O)c2ccccc2)cc1` it is 31.6 µM. As for `C/C(=N\NC(=O)c1nnn(-c2nonc2N)c1CSc1ccc(C)cc1)c1cccnc1`, the AbsAC1 (concentration giving Tm-shift threshold 1.0) was 37.4 µM. Next, `CC(=O)c1c(C)nc(-c2ccc(OCC(=O)Nc3cccc(C)c3C)cc2)n1O`: 29.7 µM; `COc1ccc(-c2nc(-c3ccc(O)cc3O)cs2)cc1OC`: 5.56 µM; `COC(=O)C[C@H]1CC[C@@H]2[C@@H](COc3ccc(NC(=O)Nc4ccc(C#N)cc4)cc3C(=O)N2C)O1`: 5.43 µM.

For the compound `O=C1Nc2cc(Cl)c(Cl)cc2N(O)N1c1ccc(Cl)cc1`, the AbsAC1 (concentration giving Tm-shift threshold 1.0) is 4.98 µM. Next, `O=C(C[C@H]1CC[C@@H]2[C@H](COC[C@H](O)CN2S(=O)(=O)c2cccc(F)c2)O1)Nc1ccccc1`: 3.48 µM; `Nc1nonc1N/N=C\c1ccccc1`: 4.88 µM. For `C/C(=N\NC(=O)COc1ccc(C)cc1C(C)C)c1cc2ccccc2o1`, the AbsAC1 (concentration giving Tm-shift threshold 1.0) was 20.9 µM. Take `COc1cc(-c2nc(C)c(C(C)=O)n2O)ccc1OCC(=O)Nc1ccc(Cl)cc1`: the AbsAC1 (concentration giving Tm-shift threshold 1.0) was 10.9 µM. Turning to `CC(C)c1c(C(=O)N/N=C/c2c[nH]c3ccccc23)nnn1-c1nonc1N`, the AbsAC1 (concentration giving Tm-shift threshold 1.0) was 1.67 µM.

With `O=[N+]([O-])c1cc(CS(=O)(=O)Oc2ccc(Cl)cc2)c(O)c([N+](=O)[O-])c1`, the AbsAC1 (concentration giving Tm-shift threshold 1.0) was > 5 µM (inactive). With `O=C(NN1C(=O)CSC1=S)C(=O)NN1C(=O)CSC1=S`, the AbsAC1 (concentration giving Tm-shift threshold 1.0) was 5.24 µM.
